# Source: patent US20120232062A1, “AZAINDAZOLES TO TREAT FLAVIVIRIDAE VIRUS INFECTION” (EIGER BIOPHARMACEUTICALS, INC., priority 2009, published 2012)
# Read-outs that look alike come from different tables or passages of the source.
# Tests used:
# HCV genotype 1b = experiment: HCV 1b replicon luciferase assay; type: cell-based; conditions: Table 1, Huh7 HCV 1b replicon, luciferase reporter, 48 hours, read-out: 1b EC50
# Method in brief: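 Luminescence (Steady-Glo) served as the replication read-out after 48 h compound exposure of 1b replicon-luciferase Huh7 cells seeded at 10k/well. Dosing used 5-fold serial dilutions, 10 concentrations, top 25 μM final, 0.1% DMSO, duplicates.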
# [1] = Caco-2 permeability testing; type: in vitro ADME, human; conditions: human, 90 min; for Papp A→B at 90 min, 10 µM: read-out: Permeability (second figure of Efflux/permeability), Papp (A-B); for Papp B→A at 90 min, 10 µM: read-out: Efflux (first figure of Efflux/permeability), Papp (B-A)
# Excerpt: Intestinal epithelium permeability is a critical characteristic that determines the rate and extent of human absorption and affects bioavailability of a drug candidate. Poor intestinal permeability leads to limited absorption. Generally, higher absorption is preferred. The Caco-2 cell line is a human colon adeno-carcinoma cell line that resembles the epithelial lining of the human small intestine. Several transport proteins that are expressed in human intestinal epithelium are also expressed in the Caco-2 cell model. Some transporter proteins are efflux systems which mediate the secretion of compounds from inside the cell back to the apical lumen (representative of the intestinal lumen), limiting overall absorption. In a permeability assay, the apparent permeability coefficient is measured between the apical to basolateral sides of a cell monolayer, Papp (A-B), and the basolateral to the apical side, Papp (B-A). Papp (A-B)<2×10^−6 cm/s is predictive of low permeability to the basolateral side, 2×10^−6 cm/s<Papp (A-B)<20×10^−6 cm/s is predictive of medium permeability, and Papp (A-B)>20×10^−6 cm/s is predictive of high permeability. In the B-A permeability assay, Papp (B-A) is measured and compounds evaluated for efflux potential. Together, these assay results are reported as a ratio of Papp (B-A) to Papp (A-B). Papp (B-A)/Papp (A-B)>3 are likely to be transported by one of the efflux systems, and have poor absorption. Papp (B-A)/Papp (A-B)<3 are likely to show reasonable intestinal absorption. An in vitro drug absorption assay suitable for use in predicting intestinal absorption of the compounds useful in the methods of the invention is described in this example. The embodiments of this assay described in this example were developed by Shanghai ChemPartner Co., Ltd., a corporation of China with its principal office located at 720 Cailun Road, Building No. 3, Shanghai 201203, China.
# Caco-2 (ATCC, catalog No. HTB-37™) cells are cultured in growth medium (MEM+10% FBS+1% NEAA). The growth medium is prepared by adding 50 mL FBS and 5 mL NEAA to 445 mL of MEM or by adjusting the final volume according to actual needs. Trypsin-EDTA (Invitrogen, Cat #25200-072) is also used.
# Hanks Balanced Salt Solution (HBSS, Invitrogen, Cat #14025-092) with 25 mM HEPES, pH 7.4, HBSS buffer with 0.2% DMSO (50 μL DMSO into 25 ml HBSS buffer), and HBSS buffer with 0.4% DMSO (100 μL DMSO into 25 ml HBSS buffer) are used.
# 10 mM stock solutions of a compound is prepared in DMSO and Lucifer Yellow in assay buffer using the formula (Actual Weight/Molecular Weight)/mL solvent=10 mM. Erythromycin, Metoprolol, and Atenolol are used as reference compounds. Donor solutions (10 μM for compounds and 5 μM for Lucifer Yellow) are prepared. For A-B, 4 μL of 10 mM compound stock solution and 2 μL of 10 mM Lucifer Yellow stock solution are loaded into 4 mL of HBSS buffer, and centrifuged (5 min, 4000 rpm) to precipitate undissolved particles. Supernatants are collected for compound dosing. For B-A, 4 μL (compounds) of 10 mM compound stock solution is added to 4 mL HBSS buffer with 0.2% DMSO, and centrifuged (5 min, 4000 rpm) to precipitate undissolved particles. Supernatants are collected for compound dosing.
# Receiver solutions are prepared. For A-B, the solution is HBSS buffer with 0.4% DMSO. For B-A, 2 μL of 10 mM Lucifer Yellow stock solution is added to 4 mL of HBSS buffer with 0.2% DMSO. Compound solutions are prepared for standard curve (3 μM/1 μM/0.2 μM/0.04 μM/0.01 μM/0.005 μM):
# 1× solution: 3 μL of 20× solution (0.1-60 μM)+57 μL 0.4% DMSO HBSS+60 μL acetonitrile (ACN) with internal standard (IS, 200 ng/mL Osalmid). The assay was performed as described below
# Stock cultures are maintained in MEM+10% FBS+1% NEAA, grown in 75 cm^2 tissue culture treated flasks and split (passed) 2 times weekly to maintain desired confluence. For maintenance passage, trypsinized cells are routinely distributed into new flasks at a standard passage ratio of 1:4. […]
# [2] = Liver microsome stability, human; type: in vitro ADME
# Excerpt: (§1) Metabolic stability assays are designed to measure the stability of a test compound in a variety of assay matrices from human and animal species. From a metabolism perspective, a drug would be relatively stable, have a small first-pass effect, and maintain an effective concentration in blood for a reasonable period of time. A microsomal preparation from the liver contains all CYP isozymes and other membrane-bound drug metabolizing enzymes which are responsible for the metabolism for the majority of drugs in humans. Metabolic stability in liver microsomes can determine half-life (T1/2) and intrinsic clearance (Clint). The determination of Clint may be useful to determine whether metabolism is the major elimination pathway when it is compared to total body clearance in vivo. For high metabolic stability in liver microsomes: […] Human, Sprague Dawley rat, and CD-1 mouse liver microsome samples were purchased from BD Gentest. An in vitro metabolic stability assay suitable for use in predicting first pass metabolism of the compounds useful in the methods of the invention is described in this example. […] 6 mM NADPH in 0.1 M K-phosphate buffer is prepared by dissolving 25.1 mg of NADPH tetrasodium salt in 5 mL of K-phosphate buffer. […] The plate is pre-incubated at 37° C. for 10 minutes. 15 μL of NADPH stock solution (6 mM) is added to the wells designated for Time 60 and timed. At 30 min, 15 min, and 5 min, 15 μL of NADPH stock solution (6 mM) is added to the wells. At the end of incubation, 135 μL of ACN containing IS is added to all the wells (60 min, 30 min, 15 min, 5 min and 0 min). Then 15 μL of NADPH stock solution (6 mM) is added to the wells designated as Time 0.
# [3] = Liver microsome stability, rat; type: in vitro ADME, Sprague Dawley rat
# Excerpt: as §1
# [4] = Liver microsome stability, mouse; type: in vitro ADME, CD-1 mouse
# Excerpt: as §1
SMILES,"EC50 (HCV genotype 1b; Hepatitis C virus, Huh-7, 48 h)","Papp A→B at 90 min, 10 µM ([1]; Caco-2, pH 7.4, Caco-2, A-B)","Papp B→A at 90 min, 10 µM ([1]; Caco-2, pH 7.4, Caco-2, B-A)",further results
Cc1ccc(C(=O)Nc2nn(C)c3nc(N4CCCCCC4)ccc23)s1 [compound 841],1600 nM,9.7 ×10⁻⁶ cm/s,1.9 ×10⁻⁶ cm/s,
O=C(NC1CCNCC1)c1nn(Cc2ccccc2Cl)c2nc(N3CCCCCC3)ccc12 [compound 853],2900 nM,,,"Papp A→B at 90 min, 10 µM ([1]; pH 7.4, Caco-2, A-B): 0.4 ×10⁻⁶ cm/s; Papp B→A at 90 min, 10 µM ([1]; pH 7.4, Caco-2, B-A): 0.4 ×10⁻⁶ cm/s"
Cn1nc(C(=O)NC2CCN(S(C)(=O)=O)CC2)c2ccc(N3CCCCCC3)nc21 [compound 1063],,50 ×10⁻⁶ cm/s,16 ×10⁻⁶ cm/s,EC50 (HCV genotype 1b): 3900 nM
Cn1nc(C(=O)NC2CCN(CC3CCOCC3)CC2)c2ccc(N3CCCCCC3)nc21 [compound 1072],2500 nM,5.4 ×10⁻⁶ cm/s,4.6 ×10⁻⁶ cm/s,
CCC(CC)Oc1ccc2c(C(=O)NC3CCN(CC4CCCCC4)CC3)nn(C)c2n1 [compound 1074],880 nM,6.6 ×10⁻⁶ cm/s,1.6 ×10⁻⁶ cm/s,
COc1ccc(CN2CCC(NC(=O)c3nn(C)c4nc(N5CCCCCC5)ccc34)CC2)cc1 [compound 1116],,0.5 ×10⁻⁶ cm/s,0.3 ×10⁻⁶ cm/s,EC50 (HCV genotype 1b): 1300 nM
Cn1nc(-c2cnc(C(=O)NCc3cccs3)s2)c2ccc(N3CCCCCC3)nc21 [compound 1129],830 nM,6 ×10⁻⁶ cm/s,4 ×10⁻⁶ cm/s,
Cn1nc(C(=O)NCc2cccs2)c2cc(N3CCCCC3)cnc21 [compound 1146],7500 nM,22 ×10⁻⁶ cm/s,21 ×10⁻⁶ cm/s,
Cn1nc(C(=O)NC2CCN(CC3CCCCC3)CC2)c2ccc(N3CCCCCCC3)cc21 [compound 1150],600 nM,1.4 ×10⁻⁶ cm/s,5.7 ×10⁻⁶ cm/s,
Clc1ccc(Cn2nc(COCCN3CCCC3)c3ccc(N4CCCCCCC4)nc32)cc1 [compound 1203],3300 nM,7.8 ×10⁻⁶ cm/s,7.3 ×10⁻⁶ cm/s,
CCN1CCC(NC(=O)c2nn(C)c3nc(N4CCCCCCC4)ccc23)CC1 [compound 1225],1200 nM,6.4 ×10⁻⁶ cm/s,3.2 ×10⁻⁶ cm/s,
CN1CCC(NC(=O)c2nn(C)c3nc(N4CCCCCCC4)ccc23)CC1 [compound 1306],360 nM,9.1 ×10⁻⁶ cm/s,4.4 ×10⁻⁶ cm/s,
CC(C)N1CCC(NC(=O)c2nn(C)c3nc(N4CCCCCCC4)ccc23)CC1 [compound 1307],1000 nM,9.6 ×10⁻⁶ cm/s,4.2 ×10⁻⁶ cm/s,
CCCC(C)CN1CCC(NC(=O)c2nn(C)c3nc(N4CCCCCCC4)ccc23)CC1 (stereo not shown) [compound 1308],480 nM,0.4 ×10⁻⁶ cm/s,0.2 ×10⁻⁶ cm/s,
Cn1nc(C(=O)NC2CCN(CCN3CCCCCC3)CC2)c2ccc(N3CCCCCCC3)nc21 [compound 1310],230 nM,1.3 ×10⁻⁶ cm/s,2.1 ×10⁻⁶ cm/s,
CC1CCCCN1CCN1CCC(NC(=O)c2nn(C)c3nc(N4CCCCCC4)ccc23)CC1 (stereo not shown) [compound 1425],500 nM,3 ×10⁻⁶ cm/s,4 ×10⁻⁶ cm/s,
CC1CCCN1CCCc1nn(C)c2nc(N3CCCCCCC3)ccc12 (stereo not shown) [compound 1452],1200 nM,,,"human liver microsome (HLM, % parent remaining) ([2]; after 15 min): 32 % parent remaining; human liver microsome (HLM, % parent remaining) ([2]; after 30 min): 13 % parent remaining; human liver microsome (HLM, % parent remaining) ([2]; after 60 min): 3 % parent remaining; rat liver microsome (RLM), % parent remaining ([3]; after 15 min): 2 % parent remaining; rat liver microsome (RLM), % parent remaining ([3]; after 30 min): 0.8 % parent remaining; rat liver microsome (RLM), % parent remaining ([3]; after 60 min): 0.5 % parent remaining; mouse liver microsome (MLM), % parent remaining ([4]; after 15 min): 1.7 % parent remaining; mouse liver microsome (MLM), % parent remaining ([4]; after 30 min): 0.9 % parent remaining; mouse liver microsome (MLM), % parent remaining ([4]; after 60 min): 0.3 % parent remaining"
Cn1nc(C(=O)NC2CCN(CCN3CCCC3)CC2)c2ccc(NC3CCCCCCC3)nc21 [compound 1469],250 nM,0.9 ×10⁻⁶ cm/s,2.9 ×10⁻⁶ cm/s,
Cn1nc(C(=O)NC2CCN(CCN3CCOCC3)CC2)c2ccc(NC3CCCCCCC3)nc21 [compound 1471],870 nM,10.9 ×10⁻⁶ cm/s,9.6 ×10⁻⁶ cm/s,
CCCN1CCC(NC(=O)c2nn(C)c3nc(NC4CCCCCCC4)ccc23)CC1 [compound 1475],830 nM,5.9 ×10⁻⁶ cm/s,6.3 ×10⁻⁶ cm/s,
O=C(NC1CCN(CCN2CCCCC2)CC1)c1nn(CC(F)F)c2nc(N3CCCCCC3)ccc12 [compound 1488],640 nM,3.3 ×10⁻⁶ cm/s,3.5 ×10⁻⁶ cm/s,
Cn1nc(C(=O)NC2CCN(CCN3CCC(CO)CC3)CC2)c2ccc(N3CCCCCC3)nc21 [compound 1560],860 nM,2 ×10⁻⁶ cm/s,13.1 ×10⁻⁶ cm/s,
CC1CCC(C)N1CCN1CCC(NC(=O)c2nn(C)c3nc(N4CCCCCC4)ccc23)CC1 (stereo not shown) [compound 1562],1900 nM,6.7 ×10⁻⁶ cm/s,6.3 ×10⁻⁶ cm/s,
